Experimental data reported in US9023810B2, “Use of a compound comprising D-mannoheptulose and/or perseitol for treating and preventing innate immunity modification diseases” (Laboratories Expanscience, priority 2004, dated 2015).
“And” between values parts separate entries of the source, which are not always exact repeats. Equal entries are not always repeated.

Key:
hBD-2 [1] = assay: Induction of hBD-2 in KB epithelial cells, ELISA on cells related to MTT; format: cell-based, human; conditions: 48 hours, 100 ng/ml
Experimental: (§1) The cells KB (ATCC CCL-17), line of epithelial cells from a human oral carcinoma, commonly used in studies of the buccal cavity, were inoculated in plaques of 96 wells and cultivated in RPMI 1640 (Roswell Park Memorial Institute Medium) with Glutamax™1 at 10% VFS (veal fœtal serum)+antibiotics.
(§2) After 24 hours of incubation, the culture medium was eliminated and the cellular carpet was rinsed twice with PBS.
(§3) The cells were then treated under the conditions defined above during 24 and 48 hours: • Control cells: medium only • TNFα (commercialised by Sigma) at 100 ng/ml • hydrosoluble extract of sugars of avocado (40% mannoheptulose/40% perseitol) at 0.005-0.05 and 0.5 w/w (of dry matter) (batch A) 3. End of Treatment • Analysis of the antimicrobial peptides by ELISA on cells
After 48 hours of incubation under the different treatment conditions, the β-defensins 2 and 3 and the LL-present in the cells KB were analysed by an ELISA method on cells. […]
(§4) For each condition of treatment, the OD450 AMPs (antimicrobial peptides) was divided by the OD570 MTT to calculate the quantity of AMPs produced per living cell.
(§5) The averages and the standard deviations were calculated for each condition and the induction of different AMPS was calculated as the percentage increase with respect to the control cells.

hBD-3 = assay: Induction of hBD-3 in KB epithelial cells, ELISA on cells related to MTT; format: cell-based, human; conditions: 48 hours, 100 ng/ml
Experimental: as §1, §2, §3
(§6) After 48 hours of incubation under the different treatment conditions, the β-defensins 2 and 3 and the LL-present in the cells KB were analysed by an ELISA method on cells.
(§7) In order to determine the total number of cells in each well, a test with MTT was run in parallel on the cells treated under the same conditions. • Utilisation of the results
as §4, §5

LL-37 = assay: Induction of LL-37 in KB epithelial cells, ELISA on cells related to MTT; format: cell-based, human; conditions: 48 hours, 100 ng/ml
Experimental: as §1, §2, §3, §6, §7, §4, §5

hBD-2 [2] = assay: Induction of hBD-2 in normal human keratinocytes, ELISA on cells related to MTT (Examples 3, 6, 7); format: cell-based; conditions: for production of hBD-2 (in words): Example 7, tested separately, commercial origin; for Modulation of the synthesis of HBD-2 (% increase with respect to control cells): proportions corresponding to 1% of a 5% solution of MS of batch A, i.e. 0.05% MS
Experimental: The keratinocytes of normal humans were inoculated in a 96 well plaque (about 20000 cells/well), in the presence of a specific medium enriched in calcium (final concentration 1.3 mM), as previously described in the publication “Human β-Defensin-2 production in Keratinocytes is regulated by Interleukin-1, Bacteria, and the State of Differentiation”, Alice Y. Liu et al., The Society for Investigative Dermatology, vol. 118, No. 2, February 2002, pages 275 to 281.
After an incubation of 24 hours at 37° C., 5% CO2: • 2 rinses with 200 μl/well of PBS (phosphate buffer in saline solution) • stimulation of the cells by 200 μl/well (in a Ca^++ supplemented medium): • by the hydrosoluble extract of sugars of avocado at concentrations of 0.5, 0.05 and 0.005 w/w of dry matter • by IL-1β at a concentration of 100 ng/ml (positive control of induction of hBD-2) III. End of Treatment (J2): ELISA
After 24 hours of incubation, the induction of the hBD-2 was evaluated by an ELISA method with a specific antibody (goat polyclonal to human BD2; Abcam; ab9871). The results obtained with the hydrosoluble extract of sugars of avocado, batch A, comprising 40% of D-mannoheptulose and 40% perseitol, based on the dry weight, are summarised in Table 8 below:
The same test as in example 3 was carried out with: • a mixture of fructose (5%), glucose (5%) and saccharose (3%); • D-mannoheptulose (40%); • perseitol (40%); • a mixture of fructose (5%), glucose (5%) saccharose (3%) and D-mannoheptulose (40%); • a mixture of fructose (5%), glucose (5%) saccharose (3%) and perseitol (40%); • a mixture of fructose (5%), glucose (5%) saccharose (3%) D-mannoheptulose (40%) and perseitol (40%); and • an extract of avocado sugars (batch A).
The same test as in example 3 was carried out with commercially available D-mannoheptulose and perseitol.

[3] = test system: tumorous cells of Ehrlich ascites sarcoma; conditions: perseitol associated with a potassium ion; cited from earlier work
hBD-2 [4] = assay: Expression of hBD-2 modulated by IL-4 in keratinocytes, in vitro modelling of atopic dermatitis; format: cell-based, human
Experimental: The keratinocytes of normal humans were inoculated as described in example 3.
After 24 hours of incubation at 37° C., 5% of CO2, the culture medium was eliminated and the cellular carpet was rinsed twice with PBS. The cells were then treated for 24 hours under the conditions defined below: • Control cells: medium only • IL-1β at 100 ng/ml (positive control for induction of hBD-2) • IL-4 at 50 ng/ml • Hydrosoluble extract of sugars of avocado (batch A) at 0.5% w/w of dry matter • IL-1β at 100 ng/ml and IL-4 at 50 ng/ml • IL-4 at 50 ng/ml and hydrosoluble extract of sugars of avocado (batch A) at 0.05% w/w of dry matter • IL-1β at 100 ng/ml and IL-4 at 50 ng/ml and hydrosoluble extract of sugars of avocado (batch A) at 0.05% w/w of dry matter
At the end of the treatment, the induction of hBD-2 was evaluated by an ELISA method on cells; in parallel, in order to determine the total number of cells in each well, a test with MTT was run in parallel on the cells treated under the same conditions. Thus, for each condition, the OD450 hBD-2 was divided by the OD570 MTT to obtain the quantity of hBD-2 produced per living cell.

[5] = Example 7, commercial origin, 0.0012%
[6] = Example 7, commercial origin, 0.012%

TNFα
Induction of HBD-2 % increase (hBD-2 [1]): 239% | OD hBD2/OD MTT average (hBD-2 [1]): 0.037 | Induction of HBD-3 % increase (hBD-3): 30% | OD hBD3/OD MTT (wells) (hBD-3): 0.431 and 0.448 and 0.399 and 0.407 and 0.374 | OD hBD3/OD MTT average (hBD-3): 0.410 | Induction of LL-37 % increase (LL-37): 88% | OD LL-37/OD MTT (wells) (LL-37): 0.080 and 0.072 and 0.077 and 0.091 and 0.082 and 0.076 | OD LL-37/OD MTT average (LL-37): 0.080

O=C(CO)[C@@H](O)[C@@H](O)[C@H](O)[C@H](O)CO [D-mannoheptulose]
effect on the synthesis of HBD-2 (in words) (hBD-2 [2]; Example 6, sugars in the proportions of batch A): more active than the perseitol | Average (hBD-2, same test as in example 3) (hBD-2 [2]; [5]): 0.089 | Average (hBD-2, same test as in example 3) (hBD-2 [2]; [6]): 0.089 | production of hBD-2 (in words) (hBD-2 [2]): capable of inducing the production of hBD-2 | Modulation of the synthesis of HBD-2 (% increase with respect to control cells) (hBD-2 [2]): 31%

OCC(O)C(O)C(O)C(O)C(O)CO (stereo not drawn) [Perseitol]
Average (hBD-2, same test as in example 3) (hBD-2 [2]; [5]): 0.063 | Average (hBD-2, same test as in example 3) (hBD-2 [2]; [6]): 0.090 | production of hBD-2 (in words) (hBD-2 [2]): capable of inducing the production of hBD-2 | Modulation of the synthesis of HBD-2 (% increase with respect to control cells) (hBD-2 [2]): 12% | incorporation of leucine-3H into tumorous cells (in words) [3]: enables leucine-3H to be incorporated

IL-4: interleukine-4, mediator of atopy, 50 ng/ml
hBD-2/MTT (single values) (hBD-2 [4]; 24 hours, IL-4 50 ng/ml): 0.160 OD and 0.158 OD and 0.163 OD | hBD-2/MTT Average (hBD-2 [4]; 24 hours, IL-4 50 ng/ml): 0.160 +/− 0.002 OD | inhibition of the synthesis of hBD-2 induced by IL-1β (hBD-2 [4]; IL-4 50 ng/ml with IL-1β 100 ng/ml): 32% | influence on the quantity of hBD-2 expressed by the keratinocytes (in words) (hBD-2 [4]; IL-4 alone, 50 ng/ml): no influence

IL-1β: positive control of induction of hBD-2, 100 ng/ml
Average (hBD-2, same test as in example 3) (hBD-2 [2]; Example 7, positive control): 0.104 | % increase vs. control (hBD-2 [2]; keratinocytes, 24 h, 100 ng/ml): 128% | hBD-2/MTT (single values) (hBD-2 [2]; keratinocytes, 24 h, 100 ng/ml): 0.223 OD and 0.324 OD and 0.273 OD and 0.322 OD | hBD-2/MTT (single values) (hBD-2 [4]; 24 hours, IL-1β 100 ng/ml): 0.291 OD and 0.308 OD and 0.347 OD | increase in the synthesis of hBD-2 with respect to the control cells (hBD-2 [4]; IL-1β 100 ng/ml): 80%
